Structures can show the parent of a compound that is named as a salt. Where two headings read alike, the source gives them in different places.
Tests used:
recombinant NLuc = assay type: biochemical; details: for Relative Recombinant NLUC: recombinant NLuc activity relative to DMSO; for Reads Counts per second (read 1) / Reads Counts per second (read 4) / Reads Counts per second (read 3) / Reads Counts per second (read 2): recombinant NLuc; for Reads Counts per second (read 1): first read column; for Reads Counts per second (read 4): fourth read column; for Reads Counts per second (read 3): third read column
[1] = test system: SARS-CoV-2-ΔOrf7a-NLuc virus; assay: microbe, parasite or virus in culture; assay type: cell-based; details: for activity at 10 µM: Severe acute respiratory syndrome coronavirus 2, Vero, 72 h, read-out: Mean relative luminescence (n=4); for activity at 10 µM / Mean relative luminescence (n=4): 1 = untreated, 0 = total inhibition
[2] = Vero cells, 10 μM, 1 = DMSO-treated infected cells

Molecule | PrestoBlue relative viability (Vero cells; [2]) | Relative Recombinant NLUC (recombinant NLuc) | Reads Counts per second (read 1) (recombinant NLuc) [Counts per second] | Reads Counts per second (read 4) (recombinant NLuc) [Counts per second] | Reads Counts per second (read 3) (recombinant NLuc) [Counts per second] | % activity in Vero 100PFU screen [1] [%] | activity at 10 µM [1] [%] | Mean relative luminescence (n=4) [1] | Reads Counts per second (read 2) (recombinant NLuc) [Counts per second] | PrestoBlue relative viability (Vero cells; African green monkey)
CSc1nc2cc(Cl)c(Oc3cccc(Cl)c3Cl)cc2[nH]1 [Triclabendazole] | 0.62 | 0.8923 | 335937 | 339544 | 336143 | 12 | 9.74 |  |  | 
Clc1ccccc1C(c1ccccc1)(c1ccccc1)n1ccnc1 [Clotrimazole] | 1.057 |  |  |  |  |  | 13.9 |  |  | 
NCCC(O)(P(=O)([O-])O)P(=O)([O-])O.[Na+].[Na+] [Pamidronate Disodium] | 0.5456 | 0.8313 | 309519 | 313941 | 313471 | 2.29 |  | 0.01648 |  | 
CCCCCCCCc1ccc(CCC(N)(CO)CO)cc1 [Fingolimod (FTY720), Fingolimod] | 0.6911 | 0.9393 | 354171 | 351555 | 356587 | 3 | 0.757 |  |  | 
COc1cc2c(Oc3ccc4[nH]c(C)cc4c3F)ncnc2cc1OCCCN1CCCC1 [Cediranib (AZD217), Cediranib] | 0.559 | 0.9439 | 350524 | 362844 | 354116 | 3.31 | 2.67 |  |  | 
CCN1C[C@H](C)n2c(c(O)c3c(=O)n(Cc4ccc(F)c(Cl)c4)nc(C(=O)NC)c32)C1=O [MK-2048] | 2.267 |  |  |  |  |  |  | 0.000491 |  | 
CC(=O)[C@]1(O)Cc2c(O)c3c(c(O)c2[C@@H](O[C@H]2C[C@H](N)[C@H](O)[C@H](C)O2)C1)C(=O)c1ccccc1C3=O [Idarubicin HCl] | 0.5406 | 0.861 | 327538 | 318222 | 325691 | 2.14 | 1.49 |  |  | 
CC(C)(Sc1cc(C(C)(C)C)c(O)c(C(C)(C)C)c1)Sc1cc(C(C)(C)C)c(O)c(C(C)(C)C)c1 [Probucol] | 0.7536 | 0.9023 | 337686 | 339611 | 341300 | 5 | 2.23 |  |  | 
CC[C@@H]([C@H](C)O)n1ncn(-c2ccc(N3CCN(c4ccc(OC[C@@H]5CO[C@@](Cn6cncn6)(c6ccc(F)cc6F)C5)cc4)CC3)cc2)c1=O [Posaconazole] | 0.7676 | 0.8565 | 325406 | 315077 | 324458 | 6 | 5.17 |  |  | 
Oc1c(Cl)cc(Cl)c2cccnc12 [Chloroxine] | 0.5777 | 0.9975 | 380665 | 374884 | 374596 | 6.5 | 3.55 |  |  | 
Br.Cc1ccc(Sc2ccccc2N2CCNCC2)c(C)c1 [Vortioxetine (Lu AA21004) HBr] | 0.509 | 0.7479 | 280784 | 284019 | 284246 | 1.39 |  | 0.007391 |  | 
N[C@@H](CC(=O)N1CCn2c(nnc2C(F)(F)F)C1)Cc1cc(F)c(F)cc1F [Sitagliptin phosphate monohydrate] | 2.5607 |  |  |  |  |  | 0.0141 |  |  | 
C[C@]12CC[C@H](O)CC1=CC[C@@H]1[C@@H]2CC[C@]2(C)C(c3cccnc3)=CC[C@@H]12 [Abiraterone] | 0.5649 | 0.7592 | 279631 | 289231 | 288897 | 6.46 | 6.48 |  | 289523 | 
Clc1ccc(CCC(Cn2ccnc2)Sc2c(Cl)cccc2Cl)cc1 (stereo not shown) [Butoconazole nitrate] | 0.6922 |  |  |  |  |  | 11.6 |  |  | 
Nc1cccc2c1CN(C1CCC(=O)NC1=O)C2=O (stereo not shown) [Lenalidomide (CC-5013), Lenalidomide] | 2.058 |  |  |  |  |  | 0.218 |  |  | 
C=CC(=O)Nc1cccc(Nc2nc(Nc3ccc(N4CCN(C(C)=O)CC4)cc3OC)ncc2C(F)(F)F)c1 [CO-1686 (AVL-301)] | 0.5096 | 0.8551 | 327566 | 319872 | 324163 | 3 |  | 0.02339 |  | 

Molecule | PrestoBlue relative viability (Vero cells; [2]) | Relative Recombinant NLUC (recombinant NLuc) | Reads Counts per second (read 1) (recombinant NLuc) [Counts per second] | Reads Counts per second (read 4) (recombinant NLuc) [Counts per second] | Reads Counts per second (read 3) (recombinant NLuc) [Counts per second] | % activity in Vero 100PFU screen [1] [%] | activity at 10 µM [1] [%] | Mean relative luminescence (n=4) [1] | Reads Counts per second (read 2) (recombinant NLuc) [Counts per second] | PrestoBlue relative viability (Vero cells; African green monkey)
Cc1ccc(Sc2ccccc2N2CCNCC2)c(C)c1 [Vortioxetine] | 0.6088 | 0.8732 | 326546 | 332965 | 329264 | 6 | 4.21 |  |  | 
Cc1cc(Nc2cc(CN3CCOCC3)c3nc(C)c(Cc4ccc(Cl)cc4F)n3n2)n[nH]1 [LY2784544] | 0.7859 |  |  |  |  |  | 0.145 |  |  | 
CN1CCN(CCCN2c3ccccc3Sc3ccc(C(F)(F)F)cc32)CC1.Cl.Cl [Trifluoperazine 2HCl] | 0.6995 | 0.9397 | 358281 | 360671 | 348422 | 7 |  | 0.05678 |  | 
C#C[C@]1(O)CC[C@H]2[C@@H]3CCC4=CCCC[C@@H]4[C@H]3C(=C)C[C@@]21CC [Desogestrel] | 0.6657 |  |  |  |  |  | 14.5 |  |  | 
CN(CCOc1ccc(CC2SC(=O)NC2=O)cc1)c1ccccn1 (stereo not shown) [Rosiglitazone] | 3.111 |  |  |  |  |  | 0.183 |  |  | 
CCc1ccc(CCOc2ccc(CC3SC(=O)NC3=O)cc2)nc1 (stereo not shown) [Pioglitazone HCl] |  |  |  |  |  |  | 0.204 |  |  | 3.485
Oc1cc(Cl)ccc1Oc1ccc(Cl)cc1Cl [Triclosan] | 0.5234 |  |  |  |  |  | 10.6 |  |  | 
CC(C)C(=O)OCC(=O)[C@@]12O[C@H](C3CCCCC3)O[C@@H]1C[C@H]1[C@@H]3CCC4=CC(=O)C=C[C@]4(C)[C@H]3[C@@H](O)C[C@@]12C [Ciclesonide] | 0.5125 |  |  |  |  |  | 14.1 |  |  | 
O=C([O-])CC(O)(CC(=O)[O-])C(=O)[O-].[Li+].[Li+].[Li+] [Lithium Citrate] |  | 0.9217 | 343238 | 343490 | 350985 | 205 |  |  |  | 
O=c1c(-c2ccc(O)cc2)coc2cc(O)ccc12 [Daidzein] |  | 0.9154 | 339091 | 346126 | 350216 | 161 |  |  |  | 
CN(C(=O)CN(CCO)CC(=O)N(C)C(C)(C)Cc1ccccc1)C(C)(C)Cc1ccccc1 [Oxethazaine] |  | 0.8736 | 330534 | 321724 | 331517 | 167 |  |  |  | 
(+)-Catechin hydrate |  | 0.9621 | 362209 | 367703 | 366108 | 160 |  |  | 357899 | 
Bivalirudin Trifluoroacetate |  | 0.8139 | 309590 | 301908 | 307409 | 172 |  |  | 311058 | 
CCCCCCCCCCCCCCCC[N+](C)(C)CCN(Cc1ccc(OC)cc1)c1ncccn1 [Thonzonium Bromide] | 0.6049 |  |  |  |  |  | 10.4 |  |  | 
COc1ccc(-n2nc(C(N)=O)c3c2C(=O)N(c2ccc(N4CCCCC4=O)cc2)CC3)cc1 [Apixaban] | 2.564 |  |  |  |  |  | 0.124 |  |  | 

From publication PMC8428568, “Discovery of re-purposed drugs that slow SARS-CoV-2 replication in human cells” (PLoS Pathogens, 2021)
